Publication PMC7403980, “Anti-Inflammatory Effects of the Novel PIM Kinase Inhibitor KMU-470 in RAW 264.7 Cells through the TLR4-NF-κB-NLRP3 Pathway” (International Journal of Molecular Sciences, 2020)

Key:
Type in all cases: cell-based, murine
IL-6 = experiment: LPS-induced IL-6 mRNA in RAW 264.7 cells (real time PCR); settings: KMU-470 30 min, LPS 50 ng/mL 6 h
Procedure: Figure 6 Inhibitory effect of KMU-470 on LPS-induced up-regulation of pro-inflammatory cytokines and activation of NLRP3 inflammasome in RAW 264.7 cells. (A–C) Cells were treated with KMU-470 for 30 min and stimulated with LPS 50 ng/mL for 6 h. The levels of IL-1β, TNF-α, and IL-6 were determined using real time PCR. *** p < 0.001, *p < 0.05. (D) Cells were pre-treated with 0.1, 0.5, and 1 μM of KMU-470 for 30 min and treated with LPS 50 ng/mL for 6 h, respectively. Whole cell lysates were isolated and used to measure the protein expression levels of pro-IL-1β and β-actin by Western blot analysis. (E) Cells were pre-treated with 0.1, 0.5, and 1 μM of KMU-470 for 30 min and treated with LPS 50 ng/mL for 6 h, respectively. Whole cell lysates were isolated and used to measure the protein expression levels of […], ASC, pro-caspase-1, pro-IL-1β, and β-actin by Western blot analysis.
Total RNA was isolated using TriZol reagent (Life Technologies; Gaithersburg, MD, USA) according to the manufacturer’s protocol. Total RNA absorbance was quantified by using Nanodrop 1000 (Thermo Fisher Scientific, Waltham, MA, USA). […] Real time quantitative PCR was performed by using the SYBR green premix (Roche Diagnostics, Mannheim, Germany) on the LightCycler 480 PCR (system Roche Diagnostics, Mannheim, Germany). […]

pro-IL-1β = experiment: LPS-induced pro-IL-1β protein expression in RAW 264.7 cells (Western blot); settings: KMU-470 0.1, 0.5, 1 μM 30 min, LPS 50 ng/mL 6 h
Procedure: Figure 2 Effect of PIM inhibition on lipopolysaccharide (LPS)-mediated inflammatory response in RAW 264.7 cells. (A) RAW 264.7 cells transfected with negative siRNA or PIM-1 siRNA for 72 h and then treated with LPS (50 ng/mL) for 6 h. Whole cell lysates were isolated and used to measure the protein expression levels of PIM-1, pro-IL-1β, p-Bad, and β-actin by Western blot analysis. […] Total RNA was isolated, and used to measure the mRNA expression levels of IL-1b and β-actin by RT-PCR analysis. *** p < 0.001, ** p < 0.01.
Figure 6 Inhibitory effect of KMU-470 on LPS-induced up-regulation of pro-inflammatory cytokines and activation of NLRP3 inflammasome in RAW 264.7 cells. (A–C) Cells were treated with KMU-470 for 30 min and stimulated with LPS 50 ng/mL for 6 h. The levels of IL-1β, TNF-α, and IL-6 were determined using real time PCR. *** p < 0.001, *p < 0.05. (D) Cells were pre-treated with 0.1, 0.5, and 1 μM of KMU-470 for 30 min and treated with LPS 50 ng/mL for 6 h, respectively. […]
RAW 264.7 cells were pre-treated with KMU-470 (0.5–1 μM/mL) for 24 h and stimulated with LPS (50 ng/mL) for 6 h. […] Immunoreactive proteins were detected using the ELC Western blot detection system kit (Millipore). Signal intensity was measured using the Chemi Image documentation system (Fusion Fx7, VILBER LOUTMAT). Protein expression levels were quantified using the Image J program. […]

RAW 264.7 cells = experiment: Toxicity / cell viability in RAW 264.7 cells (microscopy, trypan blue, XTT); settings: up to 1 µM, 24 h, trypan blue cell count
Procedure: Figure 3 Inhibitory effect of KMU-470 on LPS-induced NO production and iNOS protein expression, and cell viability in RAW 264.7 cells. (A) The cells were pre-treated with KMU-470 at a concentration of 1 μM for 30 min and then treated with different concentrations of LPS for 24 h. Nitrite in the culture supernatant was collected and evaluated using Griess reagent. Absorbance was measured at 540 nm. *** p < 0.001, ** p < 0.01, * p < 0.05. (B) Cells are pre-treated with two different concentrations of KMU-470 (0.5 μM and 1 μM) for 30 min, followed by treatment with 1 μg/mL LPS for 24 h. β-actin was used as an internal control for Western blot analysis. (C) Image-J program was used to analyze the relative optical density of the iNOS band. (D) Cells were treated with various concentrations of KMU-470 for 24 h. The effects of KMU-470 on cell proliferation and morphological changes were observed by microscopy (X100). (E) The cell proliferation rate was determined by cell count using a trypan blue exclusion assay. *p < 0.05 (F) Effect of KMU-470 on cell viability was measured by XTT assay. *** p < 0.001.
The cell viability assay was performed using a 2,3-bis (2-methoxy-4-nitro-5-sulphonyl)-2H-tetrazolium-5-carboxanilide (XTT) assay (Welgene Inc, Daegu, Korea). […] The optical density (OD) was measured using a microplate reader (BMG Labtech, Ortenberg, Germany) at a 450 nm wavelength. […]

CN(C)CCNc1cncc(-c2ccc3c(c2)/C(=C/c2cnc[nH]2)C(=O)N3)n1 [KMU-470, (Z)-3-((1H-Imidazol-5-yl)methylene)-5-(6-((2-(dimethylamino)ethyl)amino)pyrazin-2-yl)indolin-2-one]
LPS-induced up-regulation of IL-6 (mRNA) (IL-6): significantly decreased | LPS-induced up-regulation of IL-1β protein (pro-IL-1β; RAW 264.7 cells (Figure 6D)): reduced | Expression of pro-IL-1β protein compared with LPS alone group (pro-IL-1β; RAW 264.7 cells (Figure 6E)): marked decrease | Toxicity in RAW 264.7 cells (RAW 264.7 cells): no toxicity
